Data reported in patent US20200377599A1, “COMPOSITIONS AND METHODS FOR TREATING CANCER” (BETH ISRAEL DEACONESS MEDICAL CENTER, INC., priority 2017, published 2020).
Each block holds one molecule with its values, some of them ahead of it. Where a SMILES comes first, the peptide text is derived from it. The star is where a group is joined. Cbz = O=C(OCc1ccccc1)*

Columns and labels:
[1] = system: PD-L1 protein in C42 cells; experiment: Immunoblot of PD-L1 in C42 cells treated with proteasome or cullin E3 ligase inhibitor; format: cell-based; details: MG132 10 μM or MLN4924 1 μM, 12 hours
Procedure: FIG. 3K is a graph showing the excised tumor mass (mg) of B16-F10 tumors ectopically expressing SPOP Wild Type (WT) or SPOP-F102C mutant. The B16-F10 tumors were harvested after euthanizing the mice and tumor weight was recorded at the time of sacrifice. Data are represented as mean±S.D., N=5, and *p<0.05 (Student's t-test). FIG. 3L and FIG. 3M are graphs showing the relative cell surface PD-L1 expression and absolute CD3^+ T-cell populations from the isolated tumor-infiltrating lymphocytes in B16-F10 xenografted tumors ectopically expressing SPOP-WT or the SPOP-F102C mutant as determined by FACS analysis. Data are represented as mean±S.D., N=5, and *p<0.05 (Student's t-test). […] FIG. 3O and FIG. 3P are graphs showing the quantification of IHC analysis of PD-L1 protein levels and CD8^+ T cells in 82 cases of SPOP wild-type versus 15 cases of SPOP-mutant human prostate tumor specimens. **p<0.01 (Mann-Whitney test for PD-L1); *p<0.05 (Student's t-test for CD8).
(§1) Cells were lysed in EBC buffer (50 mM Tris pH 7.5, 120 mM NaCl, 0.5% NP-40) supplemented with protease inhibitors (Complete Mini, Roche) and phosphatase inhibitors (phosphatase inhibitor cocktail set I and II, Calbiochem). Protein concentrations were measured by the Beckman Coulter DU-800 spectrophotometer using the Bio-Rad protein assay reagent as described previously (Gao et al. Nat Cell Biol 11, 397-408 (2009)). […]

[2] = system: PD-L1 protein abundance in MC38, CT26, 4T1 and B16-F10 cells; experiment: Immunoblot of PD-L1 in mouse tumor cell lines arrested in M phase; format: cell-based; details: MC38, CT26, 4T1 and B16-F10 cells arrested in M phase; treated 20 hours
Text: FIG. 1A, FIG. 1B, FIG. 1C, FIG. 1D, FIG. 1E, FIG. 1F, FIG. 1G, and FIG. 1H are images showing the protein abundance of PD-L1 as the protein fluctuates during cell cycle progression. […] FIG. 1B are the cell-cycle profiles in FIG. 1A, which were monitored by fluorescence-activated cell sorting (FACS) analysis of DNA content. […] FIG. 1E and FIG. 1F show IB analysis of WCL derived from MC38 tumor cells, which are derived from colon adenocarcinoma, or CT26 mouse tumor cells, which are colon carcinoma cells, treated with the indicated concentration of nocodazole for 20 hours before harvesting. FIG. 1G and FIG. 1H show IB analysis of WCL derived from 4T1 tumor cells, which are breast cancer cells, or CT26 mouse tumor cells treated with indicated concentration of taxol for 20 hours before harvesting. […]
as §1

SPOP-S6A mutant = molecular target: T1, SPOP-S6A mutant (UniProt O43791 1-374); experiment: co-immunoprecipitation from transfected 293T cells (FIG. 4H)
T1 construct: also called Flag-SPOP S6A; phosphorylation-deficient S6A mutant of SPOP

Cdh1 = molecular target: T2, Cdh1 (UniProt Q9UM11 1-496, limits assumed); experiment: co-immunoprecipitation from transfected 293T cells (FIG. 4C)
T2 construct: Expressed in 293T cells or endogenous in MDA-MB-231 and HeLa cells; also called HA-Cdh1; APC/C E3 ligase adaptor protein Cdh1
Procedure: Cells were treated with 30 μM MG132 for 6 hours before harvesting. […] FIG. 4F are in vitro kinase assays showing that cyclin D1/CDK4 phosphorylates SPOP at Ser6, not Ser222. FIG. 4G and FIG. 4H show IB analysis of IP and WCL derived from 293T cells transfected with indicated constructs and treated with MG132 (10 μM) for 12 hours before harvesting. […] Tumor volume were measured every three days and plotted individually. […]

PD-L1 = molecular target: T3, PD-L1 (human, UniProt Q9NZQ7 19-290, limits assumed); experiment: co-immunoprecipitation from transfected 293T cells (FIG. 9E)
T3 construct: also called HA-PD-L1; PD-L1 WT
T3 sequence (Q9NZQ7 19-290 limits assumed): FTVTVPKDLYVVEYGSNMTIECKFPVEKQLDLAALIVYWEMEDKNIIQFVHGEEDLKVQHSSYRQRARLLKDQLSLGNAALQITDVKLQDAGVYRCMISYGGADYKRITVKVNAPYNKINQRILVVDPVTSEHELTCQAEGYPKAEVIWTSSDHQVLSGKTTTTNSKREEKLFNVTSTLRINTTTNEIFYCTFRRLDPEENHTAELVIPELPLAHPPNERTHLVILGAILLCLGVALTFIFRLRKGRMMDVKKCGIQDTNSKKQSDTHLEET

T2 sequence (Q9UM11 whole entry): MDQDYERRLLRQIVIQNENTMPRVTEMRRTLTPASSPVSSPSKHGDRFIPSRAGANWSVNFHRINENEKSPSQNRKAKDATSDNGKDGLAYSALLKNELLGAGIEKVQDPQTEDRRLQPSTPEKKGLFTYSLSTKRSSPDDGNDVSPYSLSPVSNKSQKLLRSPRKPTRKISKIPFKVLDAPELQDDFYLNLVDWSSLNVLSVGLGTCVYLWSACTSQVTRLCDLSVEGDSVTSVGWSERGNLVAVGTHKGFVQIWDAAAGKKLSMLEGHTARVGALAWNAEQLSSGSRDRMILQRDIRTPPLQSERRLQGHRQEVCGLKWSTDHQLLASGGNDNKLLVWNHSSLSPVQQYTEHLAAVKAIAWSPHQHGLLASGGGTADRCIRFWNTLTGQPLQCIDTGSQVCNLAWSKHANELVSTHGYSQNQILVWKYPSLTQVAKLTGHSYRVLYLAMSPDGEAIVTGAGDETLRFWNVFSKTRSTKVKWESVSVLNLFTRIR

Molecule: CC(C)C[C@@H](C=O)NC(=O)[C@H](CC(C)C)NC(=O)[C@H](CC(C)C)NC(=O)OCc1ccccc1 [MG132] (Cbz-Leu-Leu-Leu-aldehyde)
PD-L1 protein stability [1]: stabilized PD-L1 protein

Molecule: NS(=O)(=O)OC[C@@H]1C[C@@H](n2ccc3c(N[C@H]4CCc5ccccc54)ncnc32)C[C@@H]1O [MLN4924]
PD-L1 protein stability [1]: stabilized PD-L1 protein

Molecule: CC(=O)O[C@H]1C(=O)[C@@]2(C)[C@H]([C@H](OC(=O)c3ccccc3)[C@]3(O)C[C@H](OC(=O)[C@H](O)[C@@H](NC(=O)c4ccccc4)c4ccccc4)C(C)=C1C3(C)C)[C@]1(OC(C)=O)CO[C@@H]1C[C@@H]2O [Taxol]
PD-L1 protein abundance [2]: Elevated PD-L1 protein abundance

Molecule: COC(=O)Nc1nc2ccc(C(=O)c3cccs3)cc2[nH]1 [nocodazole]
PD-L1 protein abundance [2]: Elevated PD-L1 protein abundance

binding result (SPOP-S6A mutant): no binding
B1: 14-3-3γ (other, UniProt P61981 1-247, looked up)
chain: MVDREQLVQKARLAEQAERYDDMAAAMKNVTELNEPLSNEERNLLSVAYKNVVGARRSSWRVISSIEQKTSADGNEKKIEMVRAYREKIEKELEAVCQDVLSLLDNYLIKNCSETQYESKVFYLKMKGDYYRYLAEVATGEKRATVVESSEKAYSEAHEISKEHMQPTHPIRLGLALNYSVFYYEIQNAPEQACHLAKTAFDDAIAELDTLNEDSYKDSTLIMQLLRDNLTLWTSDQQDDDGGEGNN
notes: One of the HA-14-3-3 isoform constructs; also called HA-14-3-3γ

binding result (Cdh1): no binding
B2: Flag-SPOP with delta D-Box (RxxL) (other, UniProt O43791 1-374, looked up)
chain: MSRVPSPPPPAEMSSGPVAESWCYTQIKVVKFSYMWTINNFSFCREEMGEVIKSSTFSSGANDKLKWCLRVNPKGLDEESKDYLSLYLLLVSCPKSEVRAKFKFSILNAKGEETKAMESQRAYRFVQGKDWGFKKFIRLDEANGLLPDDKLTLFCEVSVVQDSVNISGQNTMNMVKVPECRLADELGGLWENSRFTDCCLCVAGQEFQAHKAILAARSPVFSAMFEHEMEESKKNRVEINDVEPEVFKEMMCFIYTGKAPNLDKMADDLLAAADKYALERLKVMCEDALCSNLSVENAAEILILADLHSADQLKTQAVDFINYHASDVLETSGWKSMVVSHPHLVAEAYRSLASAQCPFLGPPRKRLKQS
notes: also called SPOP deletion of RxxL mutant; SPOP D-box deletion

binding result (PD-L1): no binding
B3: SPOP delta MATH (other, UniProt O43791 1-374, looked up)
chain: MSRVPSPPPPAEMSSGPVAESWCYTQIKVVSVVQDSVNISGQNTMNMVKVPECRLADELGGLWENSRFTDCCLCVAGQEFQAHKAILAARSPVFSAMFEHEMEESKKNRVEINDVEPEVFKEMMCFIYTGKAPNLDKMADDLLAAADKYALERLKVMCEDALCSNLSVENAAEILILADLHSADQLKTQAVDFINYHASDVLETSGWKSMVVSHPHLVAEAYRSLASAQCPFLGPPRKRLKQS
notes: also called SPOP with the MATH domain deleted; Flag-tagged SPOP delta MATH
